Where two headings read alike, the source gives them in different places.
Key:
Recombinant Cat D = Recombinant Cat D (Homo sapiens (Human), UniProt P07339); assay: In vitro enzymatic Cathepsin D (Cat D) FRET assay; assay type: biochemical; details: read-out: IC50 IP (μM) CatD
Method: In Vitro Enzymatic Cathepsin D (Cat D) FRET (Fluorescence Resonance Energy Transfer) Assay
Recombinant Cat D was expressed in CHO cells. The assay buffer for CathepsinD is 0.05 M citrate pH 3.5, 10% DMSO final, 5 mM CHAPS. […] The assays are effectively started by the addition of different FRET substrates (20 nM for Cat D) and the combination is incubated for one hour. The FRET assay is terminated with by addition of Tris buffer, which raises the pH to neutrality, and the fluorescence is determined. The FRET substrate is a peptide with commercially available fluorophore and quencher, on opposite sides of the BACE cleavage site. The Cat D substrate peptide sequence is based on sequence #1 of Table 1 from Gulnik et al. FEBS Letters v413 p 379-384 1997. Proteolytic cleavage of the FRET substrate releases quenching of fluorescence (Cat D excitation 500 nm and emission 580 nm).

[1] = system: Aβ40 in conditioned medium of cells stably expressing Amyloid Precursor Protein (APP); assay: In vitro BACE-1 cell-based assay (Aβ40 sandwich ELISA); details: read-out: IC50 IP (μM) BACE1 cell
Method: In Vitro BACE-1 Cell-Based Assay
The cell-based assay measures inhibition or reduction of Aβ40 in conditioned medium of test compound treated cells expressing amyloid precursor protein. Cells stably expressing Amyloid Precursor Protein (APP) were plated at a density of 40K cells/well in 96 well plates (Costar). The cells were cultivated for 24 hours at 37° C. and 5% CO2 in DMEM supplemented with 10% FBS. The test compounds were then added to cells in 10-point dose response concentrations with the starting concentration being either 100 μM or 10 μM. The compounds were diluted from stock solutions in DMSO and the final DMSO concentration of the test compounds on cells was 0.1%. After 24 h of incubation with the test compounds the supernatant conditioned media was collected and the Aβ40 levels were determined using a sandwich ELISA. The IC50 of the compound was calculated from the percent of control or percent inhibition of Aβ40 as a function of the concentration of the test compound.
The sandwich ELISA to detect Aβ40 was performed in 96 well microtiter plates, which were pre-treated with goat anti-rabbit IgG (Pierce). The capture and detecting antibody pair that were used to detect Aβ40 from cell supernatants were affinity purified pAb40 (Biosource) and biotinylated 6E10 (Signet Labs Inc.), respectively. The optimal concentration for the pAb40 antibody was 3 μg/ml in Superblock/TBS (Pierce) that was supplemented with 0.05% Tween 20 (Sigma). […] Cellular supernatants were incubated with the capture antibody for 3 h at 4° C., followed by 3 wash steps in TBS-tween (0.05%). The detecting antibody incubation was for 2 h at 4° C., again followed by the wash steps as described previously. The final readout of the ELISA is Time-Resolved Fluorescence (counts per minute) using Delfia reagents Streptavidin-Europium and Enhancement solutions (Perkin Elmer) and the Victor 2 multilabel counter (Perkin Elmer).

human recombinant BACE1 = human recombinant BACE1 (Homo sapiens (Human), UniProt P56817); assay: In vitro enzymatic BACE1 FRET assay; assay type: biochemical; details: BACE1 FRET enzyme assay; read-out: IC50 IP (μM) BACE1 enzyme
Sequence of human recombinant BACE1 (P56817 46-501): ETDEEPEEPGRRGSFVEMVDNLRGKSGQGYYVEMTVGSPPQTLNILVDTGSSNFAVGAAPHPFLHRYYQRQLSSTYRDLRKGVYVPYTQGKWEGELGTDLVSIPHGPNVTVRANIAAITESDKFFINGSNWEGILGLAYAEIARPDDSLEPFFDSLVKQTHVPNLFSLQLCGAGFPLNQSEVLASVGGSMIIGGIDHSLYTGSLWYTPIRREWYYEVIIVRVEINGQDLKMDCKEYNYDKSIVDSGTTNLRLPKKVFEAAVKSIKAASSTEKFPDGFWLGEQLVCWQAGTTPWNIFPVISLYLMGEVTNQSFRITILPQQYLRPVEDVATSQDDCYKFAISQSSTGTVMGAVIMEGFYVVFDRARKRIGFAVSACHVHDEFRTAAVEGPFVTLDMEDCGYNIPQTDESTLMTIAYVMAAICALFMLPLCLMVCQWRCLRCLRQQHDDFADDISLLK
Method: These recombinant proteins were further purified using Ni-NTA affinity chromatography (Qiagen). […] This assay is effectively started by the addition of FRET substrate (50 nM) and the combination is incubated for one hour. The FRET assay is terminated by addition of Tris buffer, which raises the pH to neutrality, and the fluorescence is determined. The FRET substrate is a peptide with commercially available fluorophore and quencher, on opposite sides of the BACE cleavage site. Proteolytic cleavage of the FRET substrate releases quenching of fluorescence (excitation 488 nm and emission 590 nm).

Sequence of Recombinant Cat D (P07339 65-412): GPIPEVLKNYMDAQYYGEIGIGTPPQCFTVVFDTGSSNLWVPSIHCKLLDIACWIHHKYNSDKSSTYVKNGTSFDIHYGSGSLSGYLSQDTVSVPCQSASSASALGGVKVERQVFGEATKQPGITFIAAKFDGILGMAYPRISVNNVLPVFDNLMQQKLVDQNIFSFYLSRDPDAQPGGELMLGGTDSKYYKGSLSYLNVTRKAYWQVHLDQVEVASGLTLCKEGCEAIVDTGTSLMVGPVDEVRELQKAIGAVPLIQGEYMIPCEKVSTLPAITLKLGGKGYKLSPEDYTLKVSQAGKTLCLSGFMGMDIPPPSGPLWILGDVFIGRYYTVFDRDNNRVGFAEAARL

SMILES | IC50 (Recombinant Cat D; Cathepsin D FRET enzyme assay) [µM] | IC50 ([1]; BACE1 cell-based assay) [µM] | IC50 (human recombinant BACE1) [µM] | IC50 [1] [µM] | IC50 (Recombinant Cat D) [µM]
COc1cnc(C(=O)Nc2cc(F)c(F)c([C@@]3(C)N=C(N)S[C@H]4C[C@H]43)c2)cn1 [Example 7, N-(3-((1S,5S,6S)-3-amino-5-methyl-2-thia-4-azabicyclo[4.1.0]hept-3-en-5-yl)-4,5-difluorophenyl)-5-methoxy-2-pyrazinecarboxamide] | 719 | 0.00636 | 0.0141 | – | –
Cc1cc(Cl)cnc1C(=O)Nc1cc(F)c(F)c([C@@]2(C)N=C(N)S[C@H]3C[C@H]32)c1 [Example 8, N-(3-((1S,5S,6S)-3-amino-5-methyl-2-thia-4-azabicyclo[4.1.0]hept-3-en-5-yl)-4,5-difluorophenyl)-5-chloro-3-methyl-2-pyridinecarboxamide] | 418 | 0.0563 | 0.00528 | – | –
CCOC(=O)[C@]12C[C@H]1[C@@](C)(c1cc(NC(=O)c3ccc(Cl)cn3)cc(F)c1F)N=C(N)S2 [Example 9, (1S,5S,6S)-ethyl 3-amino-5-(5-(5-chloropicolinamido)-2,3-difluorophenyl)-5-methyl-2-thia-4-azabicyclo[4.1.0]hept-3-ene-1-carboxylate] | 366 | 0.0232 | 0.00679 | – | –
C[C@]1(c2cc(NC(=O)c3ccc(C#N)cn3)cc(F)c2F)N=C(N)S[C@H]2C[C@H]21 [Example 14, N-(3-((1S,5S,6S)-3-amino-5-methyl-2-thia-4-azabicyclo[4.1.0]hept-3-en-5-yl)-4,5-difluorophenyl)-5-cyano-2-pyridinecarboxamide] | 797 | 0.00569 | 0.0109 | – | –
Cc1cc(OC(F)F)cnc1C(=O)Nc1cc(F)c(F)c([C@@]2(C)N=C(N)S[C@H]3C[C@H]32)c1 [Example 15, N-(3-((1S,5S,6S)-3-amino-5-methyl-2-thia-4-azabicyclo[4.1.0]hept-3-en-5-yl)-4,5-difluorophenyl)-5-(difluoromethoxy)-3-methyl-2-pyridinecarboxamide] | 506 | 0.00994 | 0.0124 | – | –
COc1cnc(C(=O)Nc2cc(F)c(F)c([C@@]3(CF)N=C(N)S[C@H]4C[C@H]43)c2)cn1 [Example 16, N-(3-((1S,5S,6S)-3-amino-5-(fluoromethyl)-2-thia-4-azabicyclo[4.1.0]hept-3-en-5-yl)-4,5-difluorophenyl)-5-methoxy-2-pyrazinecarboxamide] | 875 | 0.00908 | 0.0145 | – | –
COc1cnc(C(=O)Nc2cc(F)c(F)c([C@@]3(CF)N=C(N)S[C@H]4C[C@H]43)c2)c(C)n1 [Example 17, N-(3-((1S,5S,6S)-3-amino-5-(fluoromethyl)-2-thia-4-azabicyclo[4.1.0]hept-3-en-5-yl)-4,5-difluorophenyl)-5-methoxy-3-methyl-2-pyrazinecarboxamide] | 863 | 0.0548 | 0.026 | – | –
NC1=N[C@](CF)(c2cc(NC(=O)c3ccc(Cl)cn3)cc(F)c2F)[C@@H]2C[C@@H]2S1 [Example 18, N-(3-((1S,5S,6S)-3-amino-5-(fluoromethyl)-2-thia-4-azabicyclo[4.1.0]hept-3-en-5-yl)-4,5-difluorophenyl)-5-chloropicolinamide] | 34.3 | 0.0169 | 0.0172 | – | –
Cc1cc(C#N)cnc1C(=O)Nc1cc(F)c(F)c([C@@]2(C)N=C(N)S[C@H]3C[C@H]32)c1 [Example 19, N-(3-((1S,5S,6S)-3-amino-5-methyl-2-thia-4-azabicyclo[4.1.0]hept-3-en-5-yl)-4,5-difluorophenyl)-5-cyano-3-methyl-2-pyridinecarboxamide] | 669 | 0.00431 | 0.00545 | – | –
NC1=N[C@](CF)(c2cc(Nc3ncnc4cc(Cl)cnc34)cc(F)c2F)[C@@H]2C[C@@H]2S1 [Example 22, (1S,5S,6S)-5-(5-((7-Chloropyrido[3,2-d]pyrimidin-4-yl)amino)-2,3-difluorophenyl)-5-(fluoromethyl)-2-thia-4-azabicyclo[4.1.0]hept-3-en-3-amine] | 331 | 0.0533 | 0.0149 | – | –
C#C[C@H](C)Oc1cnc(C(=O)Nc2cc(F)c(F)c([C@@]3(C)N=C(N)S[C@@]4(CF)C[C@H]43)c2)c(C)n1 [Example 616, N-(3-((1S,5S,6S)-3-amino-1-(fluoromethyl)-5-methyl-2-thia-4-azabicyclo[4.1.0]hept-3-en-5-yl)-4,5-difluorophenyl)-3-methyl-5-(((1S)-1-methyl-2-propyn-1-yl)oxy)-2-pyrazinecarboxamide] | – | – | – | 0.0329 | –
C#C[C@H](C)Oc1cnc(C(=O)Nc2cc(F)c(F)c([C@@]3(C)N=C(N)S[C@@]4(COC)C[C@H]43)c2)c(C)n1 [Example 622, N-(3-((1S,5S,6S)-3-amino-1-(methoxymethyl)-5-methyl-2-thia-4-azabicyclo[4.1.0]hept-3-en-5-yl)-4,5-difluorophenyl)-3-methyl-5-(((1S)-1-methyl-2-propyn-1-yl)oxy)-2-pyrazinecarboxamide] | – | – | – | 0.0438 | –
C#C[C@H](C)Oc1cnc(C(=O)Nc2ccc(F)c([C@@]3(C)N=C(N)S[C@@]4(C(F)F)C[C@@H]34)c2)c(C)c1 [Example 648, N-(3-((1S,5S,6S)-3-amino-1-(difluoromethyl)-5-methyl-2-thia-4-azabicyclo[4.1.0]hept-3-en-5-yl)-4-fluorophenyl)-3-methyl-5-(((1S)-1-methyl-2-propyn-1-yl)oxy)-2-pyridinecarboxamide] | – | – | – | 0.222 | –
C#CCOc1cnc(C(=O)Nc2ccc(F)c([C@@]3(C)N=C(N)S[C@@]4(CF)C[C@H]43)c2)cn1 [Example 822, N-(3-((1S,5S,6S)-3-amino-1-(fluoromethyl)-5-methyl-2-thia-4-azabicyclo[4.1.0]hept-3-en-5-yl)-4-fluorophenyl)-5-(2-propyn-1-yloxy)-2-pyrazinecarboxamide] | – | – | – | 0.000378 | –
[2H]C([2H])(C#C)Oc1cnc(C(=O)Nc2cc(F)c(F)c([C@@]3(C)N=C(N)S[C@@]4(COC)C[C@H]43)c2)cn1 [Example 840] | – | – | – | 0.0006 | –
C[C@]1(c2cc(NC(=O)c3ccc(Cl)cn3)cc(F)c2F)N=C(N)S[C@@]2(C(=O)O)C[C@H]21 [Example 899, Lithium (1S,5S,6S)-3-amino-5-(5-(5-chloropicolinamido)-2,3-difluorophenyl)-5-methyl-2-thia-4-azabicyclo[4.1.0]hept-3-ene-1-carboxylate] | – | – | – | 2.45 | –
NC1=N[C@](CF)(c2cc(Nc3nccc4nc(OCc5ncco5)cnc34)ccc2F)[C@@H]2C[C@]2(c2c[nH]nn2)S1 [Example 957, N-(3-((1S,5S,6S)-3-amino-5-(fluoromethyl)-1-(1H-1,2,3-triazol-4-yl)-2-thia-4-azabicyclo[4.1.0]hept-3-en-5-yl)-4-fluorophenyl)-2-(1,3-oxazol-2-ylmethoxy)pyrido[3,4-b]pyrazin-5-amine] | – | – | – | 0.00616 | –
CCOc1cnc(C(=O)Nc2cc(F)c(F)c([C@@]3(C)N=C(N)S[C@@]4(COC)C[C@H]43)c2)cn1 [Example 1038, N-(3-((1S,5S,6S)-3-amino-1-(methoxymethyl)-5-methyl-2-thia-4-azabicyclo[4.1.0]hept-3-en-5-yl)-4,5-difluorophenyl)-5-ethoxy-2-pyrazinecarboxamide] | – | – | – | – | 1300
C=CC(C)Oc1cnc(C(=O)Nc2ccc(F)c([C@@]3(C)N=C(N)S[C@@]4(COC)C[C@H]43)c2)cn1 (stereo partly drawn) [Example 1063, N-(3-((1S,5S,6S)-3-amino-1-(methoxymethyl)-5-methyl-2-thia-4-azabicyclo[4.1.0]hept-3-en-5-yl)-4-fluorophenyl)-5-(but-3-en-2-yloxy)pyrazine-2-carboxamide] | – | – | – | 0.1 | –

— patent US20160046618A1, “Cyclopropyl Fused Thiazin-2-Amine Compounds as Beta-Secretase Inhibitors and Methods of Use” (AMGEN INC., priority 2014, published 2016)
